Data reported in patent US8017315B2, “Mitochondrial localization of MUC1” (Dana Farber Cancer Institute, Inc., priority 2005, dated 2011).
Values belong to the molecule of their own block, whether it stands above or below them. Ends that are not written are not given here.

What was measured:
c-Src = c-Src (Homo sapiens, UniProt P12931); assay: c-Src activation (autophosphorylation), anti-c-Src immunoprecipitation and immunoblot; assay type: cell-based; settings: HCT116/MUC1 cells
Protocol: (§1) Cell culture. Human HCT116/vector, HCT116/MUC1, HCT116/MUC1(Y46F) (Ren et al. (2004) Cancer Cell 5:163-175) and HCT116/MUC1-CD (Huang et al. (2003) Cancer Biol. Ther. 2:702-706) cells were cultured in Dulbecco's Modified Eagle Medium/F12 with 10% heat-inactivated fetal bovine serum (HI-FBS), 100 units/ml penicillin, […], and 2 mM L-glutamine. Human HeLa cervical carcinoma, 293 embryonic kidney and MCF-7 breast cancer cells were grown in Dulbecco's Modified Eagle Medium containing 10% HI-FBS, antibiotics and L-glutamine. Human ZR-75-1 breast cancer cells were cultured in RPMI1640 medium containing 10% HI-FBS, antibiotics and L-glutamine. Cells were grown to 60% confluence and then maintained overnight in medium with 0.1% serum before treatment with heregulin (HRG; 20 ng/ml; Calbiochem-Novabiochem, LaJolla, Calif.).
(§2) Immunoprecipitation and immunoblotting. […] Reactivity was detected with horseradish peroxidase-conjugated secondary antibodies and chemiluminescence (PerkinElmer Life Sciences, Boston, Mass.). Intensity of the signals was determined by densitometric scanning. Statistical significance was determined by the Student's t-test.

[1] = test system: binding of MUC1 and HSP90; assay: MUC1-HSP90 co-immunoprecipitation and immunoblot in cells; assay type: cell-based, Human
Protocol: Cell culture. […] Human ZR-75-1 breast cancer cells were cultured in RPMI1640 medium containing 10% HI-FBS, antibiotics and L-glutamine. Cells were grown to 60% confluence and then maintained overnight in medium with 0.1% serum before treatment with heregulin (HRG; 20 ng/ml; Calbiochem-Novabiochem, LaJolla, Calif.).
Immunoprecipitation and immunoblotting. […] Lysates not subjected to immunoprecipitation were immunoblotted with anti-MUC1-C, anti-HSP60 (Stressgen Biotechnologies, Victoria, BC, Canada), anti-PDGFR (Santa Cruz Biotechnology), anti-BAP31 (Abcam, Cambridge, Mass.), anti-PCNA (Calbiochem-Novabiochem), anti-IkBa (Santa Cruz Biotechnology), anti-calreticulin (Stressgen Biotechnologies), anti-Tom20 (BD Biosciences), anti-Tim23 (BD Biosciences), anti-Tim44 (BD Biosciences) or anti-β-actin (Sigma-Aldrich). Reactivity was detected with horseradish peroxidase-conjugated secondary antibodies and chemiluminescence (PerkinElmer Life Sciences, Boston, Mass.). Intensity of the signals was determined by densitometric scanning. Statistical significance was determined by the Student's t-test.
Subcellular fractionation. […] SM buffer ([…]) was added to one aliquot, and hypotonic buffer (10 mM MOPS-KOH, pH 7.2; […]) was added to the other aliquot. The samples were incubated for 15 minutes on ice and then left untreated or digested with […] trypsin (Sigma-Aldrich) for 15 minutes at 4° C. In other experiments, purified mitochondria in suspension buffer (5 mM HEPES, pH 7.4, 210 mM mannitol, 70 mM sucrose, 100 mM KCl, and 1 mM EGTA) were treated with 0.5% or 1% digitonin (Sigma-Aldrich) for 15 minutes at 4° C. Alternatively, the mitochondria were incubated with 0.5% digitonin for 1 minute at 4° C., diluted with suspension buffer, and then treated with […] trypsin for 15 minutes at 4° C.

[2] = test system: localization of MUC1-C to mitochondria; assay: Immunoblot of purified mitochondria for MUC1 targeting; assay type: cell-based, Human; settings: HCT116/MUC1 cells
Protocol: as §1
as §2, with “t-test. […]” for “t-test.”

[3] = target: T1, purified recombinant human HSP70 (Homo sapiens, UniProt P0DMV8); assay: GST pull-down binding study with recombinant HSP70; settings: GST fusion proteins on glutathione beads, 1 hour at 4° C., no c-Src
T1 construct: purchased Stressgen Biotechnologies
Protocol: (§3) Binding Studies. Sequences encoding MUC1-CD, MUC1-CD(1-45), or MUC1-CD(46-72) were amplified by PCR and cloned into the pGEX-4T vector (Amersham Biosciences, Piscataway, N.J.). Purified GST-MUC1-CD fusion proteins bound to glutathione beads were incubated with purified recombinant human HSP70 or HSP90 (Stressgen Biotechnologies) for 1 hour at 4° C. In other experiments, the purified GST fusion proteins bound to glutathione beads were incubated with or without 50 ng c-Src (Upstate Biotechnology) in the presence of […] for 20 minutes at 30° C. HSP90 was then added for 1 hour at 4° C. Precipitated proteins were subjected to immunoblot analysis with anti-HSP70 or anti-HSP90.

[4] = test system: purified recombinant human HSP90; assay: GST pull-down binding study with recombinant HSP90; settings: for binding to HSP90 after incubation with c-Src and ATP: GST fusion proteins incubated with c-Src and ATP 20 minutes at 30° C., then HSP90 1 hour at 4° C.
Protocol: as §3

[5] = test system: binding of MUC1 and HSP70; assay: MUC1-HSP70 co-immunoprecipitation and immunoblot in cells; assay type: cell-based, Human; settings: HRG 10 minutes
Protocol: as §1
Immunoprecipitation and immunoblotting. Equal amounts of protein from cell lysates were incubated with anti-MUC1-N (antibody DF3) (Kufe et al. (1984) Hybridoma 3:223-232), anti-Flag (Sigma-Aldrich, St. Louis, Mo.), anti-c-Src (Upstate Biotechnology, Lake Placid, N.Y.), anti-HSP90 (BD Biosciences PharMingen, San Diego, Calif.) or normal mouse IgG (Santa Cruz Biotechnology, Santa Cruz, Calif.) for 2 hours at 4° C. Immune complexes were prepared as described (Li et al. (1998) Mol. Cell. Biol. 18:7216-7224) and subjected to immunoblot analysis with anti-HSP70, anti-HSP90, anti-MUC1-N, anti-MUC1-C (Ab5; Neomarkers, Fremont, Calif.), anti-phospho-c-Src(Tyr416) (Cell Signaling Technology, Beverly, Mass.) or anti-c-Src. […] Reactivity was detected with horseradish peroxidase-conjugated secondary antibodies and chemiluminescence (PerkinElmer Life Sciences, Boston, Mass.). Intensity of the signals was determined by densitometric scanning. Statistical significance was determined by the Student's t-test.

cytosolic MUC1-C levels = assay: Immunoblot of cytosolic fractions for MUC1-C; assay type: cell-based, Human; settings: cytosolic fraction of HCT116/MUC1 cells; HRG 10 minutes
Protocol: as §1
as §2, with “t-test. […]” for “t-test.”

[6] = target: HSP70 (endogenous, in lysates of human cells) (human) (UniProt P0DMV8); assay: anti-MUC1-N immunoprecipitation from HCT116/MUC1 lysates, immunoblot, scanning densitometry
[7] = target: T2, purified recombinant human HSP90 (human, UniProt P08238 1-724, limits assumed); assay: GST pull-down with recombinant HSP90 after incubation with c-Src and ATP, anti-HSP90 immunoblot
T2 construct: Bought (Stressgen Biotechnologies); also called recombinant HSP90
T2 sequence (P08238 whole entry T147R/R177M): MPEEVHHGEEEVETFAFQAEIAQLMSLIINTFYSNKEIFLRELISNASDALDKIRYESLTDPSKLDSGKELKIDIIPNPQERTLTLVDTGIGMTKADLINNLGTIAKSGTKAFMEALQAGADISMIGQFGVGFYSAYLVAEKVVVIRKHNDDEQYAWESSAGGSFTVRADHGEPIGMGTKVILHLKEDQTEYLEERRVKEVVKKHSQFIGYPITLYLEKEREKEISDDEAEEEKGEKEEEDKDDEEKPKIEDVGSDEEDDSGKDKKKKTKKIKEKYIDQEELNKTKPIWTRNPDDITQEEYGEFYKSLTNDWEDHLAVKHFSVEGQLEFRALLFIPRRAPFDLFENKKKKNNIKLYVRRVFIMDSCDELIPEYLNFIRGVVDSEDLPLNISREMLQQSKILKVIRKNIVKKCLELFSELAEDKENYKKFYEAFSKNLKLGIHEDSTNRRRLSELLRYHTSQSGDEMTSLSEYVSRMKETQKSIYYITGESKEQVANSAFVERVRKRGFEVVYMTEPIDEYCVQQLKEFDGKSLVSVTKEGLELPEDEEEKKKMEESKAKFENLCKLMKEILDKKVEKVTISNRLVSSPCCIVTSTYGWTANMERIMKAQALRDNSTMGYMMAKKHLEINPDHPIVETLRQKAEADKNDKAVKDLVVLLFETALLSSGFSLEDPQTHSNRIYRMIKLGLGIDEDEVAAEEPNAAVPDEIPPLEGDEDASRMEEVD

T1 sequence (P0DMV8 2-641 limits assumed): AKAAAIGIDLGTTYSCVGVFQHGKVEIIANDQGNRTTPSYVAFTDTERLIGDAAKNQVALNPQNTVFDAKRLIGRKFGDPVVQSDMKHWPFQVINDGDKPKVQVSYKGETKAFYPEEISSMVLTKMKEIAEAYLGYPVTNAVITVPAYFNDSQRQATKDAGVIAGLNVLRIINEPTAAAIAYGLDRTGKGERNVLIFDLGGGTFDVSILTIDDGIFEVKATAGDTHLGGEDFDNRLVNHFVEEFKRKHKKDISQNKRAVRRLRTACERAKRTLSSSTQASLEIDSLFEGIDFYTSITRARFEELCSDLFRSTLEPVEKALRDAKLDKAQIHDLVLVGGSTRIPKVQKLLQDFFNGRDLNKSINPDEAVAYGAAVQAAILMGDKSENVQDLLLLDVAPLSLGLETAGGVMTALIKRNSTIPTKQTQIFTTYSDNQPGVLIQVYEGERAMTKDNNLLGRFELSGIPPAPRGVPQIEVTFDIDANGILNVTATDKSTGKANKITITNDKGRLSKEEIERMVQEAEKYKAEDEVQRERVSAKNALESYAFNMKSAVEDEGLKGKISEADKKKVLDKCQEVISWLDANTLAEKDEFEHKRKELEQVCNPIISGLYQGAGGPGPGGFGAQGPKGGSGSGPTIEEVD

HRG-induced c-Src activation (c-Src; PP2 10 μM for 1 hour, then HRG 20 ng/ml 10 minutes): blocked HRG-induced c-Src activation
Molecule: CC(C)(C)n1nc(-c2ccc(Cl)cc2)c2c(N)ncnc21 [PP2, reference compound]
HRG-induced binding of MUC1 and HSP90 in presence of inhibitor ([1]; HCT116/MUC1 cells, PP2 10 μM or GA 1 μM for 1 hour, then HRG, anti-MUC1-N precipitates): attenuated this response
HRG-induced targeting of MUC1 to mitochondria in presence of inhibitor ([2]; PP2 or GA for 1 hour, then HRG): attenuated

binding to HSP70 [3]: binding to HSP70 was detected
binding to HSP90 after incubation with c-Src and ATP [4]: no detectable binding of HSP90
Molecule: MUC1-CD(46-72): GST fusion of amino acids 46-72 (YEKVSAGNGGSSLSYTNPAVAATSANL; SEQ ID NO:2) of the human MUC1 CD (not fully specified; also: fused to GST)

c-Src activation as determined by autophosphorylation (c-Src; HRG 20 ng/ml 10 minutes): activated c-Src
Molecule: heregulin [HRG]
binding of MUC1-CD to HSP90 on HRG stimulation ([1]; HCT116/MUC1-CD (Flag-MUC1-CD) cells, HRG 10 minutes): stimulated binding of MUC1-CD to HSP90
binding of MUC1 and HSP90 on HRG stimulation ([1]; HCT116/MUC1 cells, HRG 20 ng/ml 10 minutes): increase in binding of MUC1 and HSP90
binding of endogenous MUC1 and HSP90 on HRG stimulation ([1]; MCF-7 breast cancer cells, HRG 10 minutes): increased binding of MUC1 and HSP90
binding of endogenous MUC1 and HSP90 on HRG stimulation ([1]; ZR-75-1 breast cancer cells, HRG 10 minutes): increased binding of MUC1 and HSP90
binding of cytosolic MUC1-C and HSP90 ([1]; cytosolic fraction of HCT116/MUC1 cells, HRG 10 minutes, anti-HSP90 precipitates): increases binding of cytosolic MUC1-C and HSP90
binding of MUC1 and HSP90 at the cell membrane ([1]; purified cell membranes of HCT116/MUC1 cells, HRG 10 minutes): stimulates binding of MUC1 and HSP90 at the cell membrane
binding of MUC1-CD to HSP70 on HRG stimulation ([5]; HCT116/MUC1-CD (Flag-MUC1-CD) cells): little effect on binding of MUC1-CD to HSP70
binding of endogenous MUC1 and HSP70 on HRG stimulation ([5]; MCF-7 breast cancer cells): little if any effect on this interaction
binding of endogenous MUC1 and HSP70 on HRG stimulation ([5]; ZR-75-1 breast cancer cells): no apparent effect on the constitutive interaction between MUC1 and HSP70
localization of MUC1-C to mitochondria on HRG stimulation ([2]; HRG 10 minutes): induces localization of MUC1-C, and not MUC1-N, to mitochondria
cytosolic MUC1-C levels (cytosolic MUC1-C levels): increase in cytosolic MUC1-C levels

percent of the total HSP70 pool associated with MUC1 [6]: 0.6%
Molecule: MUC1 (human, full length, expressed in cells) (from UniProt P15941 24-1255)

binding to HSP70 [3]: binds to HSP70
binding to HSP90 ([4]; GST fusion protein on glutathione beads, 1 hour at 4° C., no c-Src): but not HSP90
Molecule: MUC1-CD: GST fusion of the 72 amino acid MUC1 cytoplasmic domain (SEQ ID NO:1)
binding to HSP90 after incubation with c-Src and ATP [4]: c-Src induced binding of MUC1-CD to HSP90

binding to HSP90 after incubation with c-Src and ATP [4]: no detectable binding of HSP90
Molecule: MUC1-CD(1-45): GST fusion deletion mutant, amino acids 1-45 of the MUC1 cytoplasmic domain (CQCRRKNYGQLDIFPARDTYHPMSEYPTYHTHGRYVPPSSTDRSP; not fully specified; cysteine pairing not given here; also: fused to GST)

binding result [7]: no binding
B1: GST-MUC1-CD(1-45) (other)
chain: CQCRRKNYGQLDIFPARDTYHPMSEYPTYHTHGRYVPPSSTDRSP
modifications: not fully specified; cysteine pairing not given here; also: N-terminal GST fusion (pGEX-4T), sequence not given here
notes: Deletion mutant of MUC1-CD on glutathione beads; it lacks Y-46; not shown: glutathione S-transferase (GST) tag encoded by the pGEX-4T vector
